Assays:
DCMTase = target: T1, DCMTase (Mus musculus, UniProt P13864); assay: Steady-state kinetic assays (methyl transfer from tritiated AdoMet to DNA); assay type: biochemical; design: key: C, competitive; NC, noncompetitive; UC, uncompetitive inhibition; conditions: product inhibition
T1 construct: a highly homogeneous, unproteolyzed preparation of DCMTase from mouse erythroleukemia cells (MEL); endogenous in cells; host or cells: mouse erythroleukemia (MEL) cells; endogenous enzyme purified per Xu et al. 1995
Procedure: Single-stranded DNA was heated to 90 °C and quick cooled on ice, prior to initiation of the reaction. Freeze-thawed DNA produced equivalent results. Incubations were at 37 °C for 60 minutes. […] The reaction was stopped after 60 minutes by transferring 20 μL of the reaction onto a DE 81 filter paper that was processed as described (Flynn et al., 1996). The radioactivity above the background, determined from assays without added poly(dI·dC:dI·dC), was converted to initial velocities and expressed as picomoles of methyl groups transferred to poly(dI·dC:dI·dC) per hour and plotted in double reciprocal form. […] Incubations were at 37 °C for 60 minutes. […] The GC-box b concentrations were: diamonds, 0; circles, 0.75 μM; triangles, 1.5 μM; squares, 5.0 μM. Incubations were at 37 °C for 60 minutes. […] Incubations were at 37 °C for 60 minutes. […] Incubations were at 37 °C for 60 minutes. […] The AdoHcy concentrations were: squares, 0; diamonds, 0.75 μM; circles, 1.5 μM; triangles, 3.0 μM; notched squares, 6.0 μM. Incubations were at 37 °C for 60 minutes. […] Incubations were at 37 °C for 60 minutes. […] The AdoHcy concentrations were: squares, 0; diamonds, 15 μM; circles, 30 μM. […] The standard errors associated with fitted parameters and graphical analysis of the experimental data scattered around the calculated best fit lines were also considered in making an assignment.

[1] = substrate: C[S+](CC[C@H](N)C(=O)O)C[C@H]1O[C@@H](n2cnc3c(N)ncnc32)[C@H](O)[C@@H]1O; assay: purified protein, by the assay type; conditions: other: true Michaelis constant, equation 2 (sequential mechanism); 20 nM DCMTase; pH 8.0

Q: What does the source list for `Nc1ncnc2c1ncn2[C@@H]1O[C@H](CSCC[C@H](N)C(=O)O)[C@@H](O)[C@H]1O` [AdoHcy, S-adenosyl-L-homocysteine]?
A: Type of Inhibition (DCMTase; varied substrate AdoMet, fixed substrate IC): C; Type of Inhibition (DCMTase; varied substrate IC, fixed substrate AdoMet): NC/UC

B1: DCMTase (Mus musculus) (protein)
chain: MPARTAPARVPALASPAGSLPDHVRRRLKDLERDGLTEKECVREKLNLLHEFLQTEIKSQLCDLETKLHKEELSEEGYLAKVKSLLNKDLSLENGTHTLTQKANGCPANGSRPTWRAEMADSNRSPRSRPKPRGPRRSKSDSDTLSVETSPSSVATRRTTRQTTITAHFTKGPTKRKPKEESEEGNSAESAAEERDQDKKRRVVDTESGAAAAVEKLEEVTAGTQLGPEEPCEQEDDNRSLRRHTRELSLRRKSKEDPDREARPETHLDEDEDGKKDKRSSRPRSQPRDPAAKRRPKEAEPEQVAPETPEDRDEDEREEKRRKTTRKKLESHTVPVQSRSERKAAQSKSVIPKINSPKCPECGQHLDDPNLKYQQHPEDAVDEPQMLTSEKLSIYDSTSTWFDTYEDSPMHRFTSFSVYCSRGHLCPVDTGLIEKNVELYFSGCAKAIHDENPSMEGGINGKNLGPINQWWLSGFDGGEKVLIGFSTAFAEYILMEPSKEYEPIFGLMQEKIYISKIVVEFLQNNPDAVYEDLINKIETTVPPSTINVNRFTEDSLLRHAQFVVSQVESYDEAKDDDETPIFLSPCMRALIHLAGVSLGQRRATRRVMGATKEKDKAPTKATTTKLVYQIFDTFFSEQIEKYDKEDKENAMKRRRCGVCEVCQQPECGKCKACKDMVKFGGTGRSKQACLKRRCPNLAVKEADDDEEADDDVSEMPSPKKLHQGKKKKQNKDRISWLGQPMKIEENRTYYQKVSIDEEMLEVGDCVSVIPDDSSKPLYLARVTALWEDKNGQMMFHAHWFCAGTDTVLGATSDPLELFLVGECENMQLSYIHSKVKVIYKAPSENWAMEGGTDPETTLPGAEDGKTYFFQLWYNQEYARFESPPKTQPTEDNKHKFCLSCIRLAELRQKEMPKVLEQIEEVDGRVYCSSITKNGVVYRLGDSVYLPPEAFTFNIKVASPVKRPKKDPVNETLYPEHYRKYSDYIKGSNLDAPEPYRIGRIKEIHCGKKKGKVNEADIKLRLYKFYRPENTHRSYNGSYHTDINMLYWSDEEAVVNFSDVQGRCTVEYGEDLLESIQDYSQGGPDRFYFLEAYNSKTKNFEDPPNHARSPGNKGKGKGKGKGKGKHQVSEPKEPEAAIKLPKLRTLDVFSGCGGLSEGFHQAGISETLWAIEMWDPAAQAFRLNNPGTTVFTEDCNVLLKLVMAGEVTNSLGQRLPQKGDVEMLCGGPPCQGFSGMNRFNSRTYSKFKNSLVVSFLSYCDYYRPRFFLLENVRNFVSYRRSMVLKLTLRCLVRMGYQCTFGVLQAGQYGVAQTRRRAIILAAAPGEKLPLFPEPLHVFAPRACQLSVVVDDKKFVSNITRLSSGPFRTITVRDTMSDLPEIQNGASNSEIPYNGEPLSWFQRQLRGSHYQPILRDHICKDMSPLVAARMRHIPLFPGSDWRDLPNIQVRLGDGVIAHKLQYTFHDVKNGYSSTGALRGVCSCAEGKACDPESRQFSTLIPWCLPHTGNRHNHWAGLYGRLEWDGFFSTTVTNPEPMGKQGRVLHPEQHRVVSVRECARSQGFPDSYRFFGNILDRHRQVGNAVPPPLAKAIGLEIKLCLLSSARESASAAVKAKEEAATKD
Q: B1 was tested. Which Km [1] did it give?
A: 1.4 ± 0.2 µM

From patent EP1018003B1, “MODULATORS OF DNA CYTOSINE-5 METHYLTRANSFERASE AND METHODS FOR USE THEREOF” (The Regents of the University of California, priority 1997, dated 1999)
